The experiment concerns HeLa. In words: Cytotoxicity against human HeLa cells assessed as decrease in cell viability after 72 hrs by XTT assay. The class given is functional, cell-based. In general terms: Formazan colour is commonly taken as a measure of viable cells.

One may read the IC50 as the concentration needed to halve the response being measured.

With `CC(/C=C/c1ccccc1)=C\[C@H](O)[C@@H]1CC(=O)N[C@@H](CO)C(=O)N[C@H]2C[n+]3cc(n([C@@H]4OC[C@H](O)[C@H](O)[C@H]4O)c3)C[C@H](NC(=O)CCC[C@@H](C(=O)[O-])NC(=O)[C@@H](O)CNC(=O)[C@H](Cc3ccc(Br)cc3)NC(=O)[C@H]([C@@H](O)C(N)=O)NC(=O)[C@H](CC(N)=O)NC2=O)C(=O)N[C@@H]([C@H](C)O)C(=O)N[C@@H](CO)C(=O)N[C@@H](Cc2ccccc2)C(=O)N1`, the half-maximal inhibitory concentration (IC50) worked out at 1900 nM.

(Values after ChEMBL document CHEMBL4266017, “Colony-wise Analysis of a Theonella swinhoei Marine Sponge with a Yellow Interior Permitted the Isolation of Theonellamide I” (J Nat Prod, 2018).)
